# Results taken from patent US8877938B2, “Compounds containing S-N-valeryl-N-{[2′-(1H-tetrazole-5-yl)-biphenyl-4-yl]-methyl}-valine and (2R,4S)-5-biphenyl-4-yl-4-(3-carboxy-propionylamino)-2-methyl-pentanoic acid ethyl ester moieties and cations” (Novartis Pharmaceuticals Corporation, priority 2005, dated 2014).
# Where two headings read alike, the source gives them in different places.
# Tests used:
# [1] = tested on: double-transgenic rats (dTGRs) that overexpress both human renin and its substrate, human angiotensinogen
# Description: (§1) Representative studies are carried out with trisodium [3-((1S,3R)-1-biphenyl-4-ylmethyl-3-ethoxycarbonyl-1-butylcarbamoyl)propionate-(S)-3′-methyl-2′- pentanoyl{2″-(tetrazol-5-ylate)biphenyl-4′-ylmethyl}amino)butyrate] hemipentahydrate, e.g. applying the following methodology: • The antihypertensive and neutral endopeptidase 24.11 (NEP)-inhibitory activities of trisodium [3-((1S,3R)-1-biphenyl-4-ylmethyl-3-ethoxycarbonyl-1-butylcarbamoyl)propionate-(S)-3′-methyl-2′-(pentanoyl{2″-tetrazol-5-ylate)biphenyl-4′-ylmethyl}amino)butyrate] hemipentahydrate is assessed in conscious rats. The blood pressure-lowering effect is evaluated in double-transgenic rats (dTGRs) that overexpress both human renin and its substrate, human angiotensinogen (Bohlender, et al, High human renin hypertension in transgenic rats. Hypertension; 29(1 Pt 2):428-34, 1997). […] The NEP-inhibitory effect of trisodium [3-((1 S,3R)-1-biphenyl-4-ylmethyl-3-ethoxycarbonyl-1-butylcarbamoyl)propionate-(S)-3′-methyl-2′-(pentanoyl{2″-(tetrazol-5-ylate)biphenyl-4′-ylmethyl}amino)butyrate] hemipentahydrate is determined in conscious Sprague-Dawley rats infused with exogenous atrial natriuretic peptide (ANP). Potentiation of plasma ANP levels is used as an index of NEP inhibition in vivo. In both models, trisodium [3-((1S,3R)-1-biphenyl-4-ylmethyl-3-ethoxycarbonyl-1-butylcarbamoyl)propionate-(S)-3′-methyl-2′-(pentanoyl{2″-(tetrazol-5-ylate)biphenyl-4′-ylmethyl}amino)butyrate] hemipentahydrate is administered orally as a powder in gelatin mini capsules. […] Antihypertensive Effect In Vivo
# The dTGRs are instrumented with radiotelemetry transmitters for continuous measurement of arterial blood pressure and heart rate. Animals are randomly assigned to vehicle (empty capsule) or treatment (at 2, 6, 20 or 60 mg/kg, p.o.) groups.
# [2] = target: neutral endopeptidase 24.11 (NEP) (Rattus norvegicus, UniProt P07861); settings: for NEP inhibition in vivo, as reflected by potentiation of plasma ANPir: oral administration, conscious Sprague-Dawley rats infused with exogenous ANP
# Description: as §1
# Rat ANP(1-28) is infused intravenously at a rate of 450 ng/kg/min in conscious, chronically cannulated, male Sprague-Dawley rats. After one hour of infusion, rats are randomly assigned to one of six groups: untreated control, vehicle (empty capsule) control, or one of four doses of drug (2, 6, 20, or 60 mg/kg, p.o.). ANP infusion is continued for an additional eight hours. Blood samples are collected for measuring plasma ANPir by a commercial enzyme immunoassay kit at −60 min (i.e., before initiating ANP infusion), −30 min (after 30 min of ANP infusion), 0 min (“baseline”; after 60 min of ANP infusion but before dosing with drug or its vehicle), and at 0.25, 0.5,1, 2, 3, 4, 5, 6, 7, and 8 hr post-dosing.
# [3] = 2, 6, 20 or 60 mg/kg, p.o., rat ANP(1-28) infused i.v. at 450 ng/kg/min
# neutral endopeptidase 24.11 (NEP), sequence (P07861 whole entry, the tested form may be a part): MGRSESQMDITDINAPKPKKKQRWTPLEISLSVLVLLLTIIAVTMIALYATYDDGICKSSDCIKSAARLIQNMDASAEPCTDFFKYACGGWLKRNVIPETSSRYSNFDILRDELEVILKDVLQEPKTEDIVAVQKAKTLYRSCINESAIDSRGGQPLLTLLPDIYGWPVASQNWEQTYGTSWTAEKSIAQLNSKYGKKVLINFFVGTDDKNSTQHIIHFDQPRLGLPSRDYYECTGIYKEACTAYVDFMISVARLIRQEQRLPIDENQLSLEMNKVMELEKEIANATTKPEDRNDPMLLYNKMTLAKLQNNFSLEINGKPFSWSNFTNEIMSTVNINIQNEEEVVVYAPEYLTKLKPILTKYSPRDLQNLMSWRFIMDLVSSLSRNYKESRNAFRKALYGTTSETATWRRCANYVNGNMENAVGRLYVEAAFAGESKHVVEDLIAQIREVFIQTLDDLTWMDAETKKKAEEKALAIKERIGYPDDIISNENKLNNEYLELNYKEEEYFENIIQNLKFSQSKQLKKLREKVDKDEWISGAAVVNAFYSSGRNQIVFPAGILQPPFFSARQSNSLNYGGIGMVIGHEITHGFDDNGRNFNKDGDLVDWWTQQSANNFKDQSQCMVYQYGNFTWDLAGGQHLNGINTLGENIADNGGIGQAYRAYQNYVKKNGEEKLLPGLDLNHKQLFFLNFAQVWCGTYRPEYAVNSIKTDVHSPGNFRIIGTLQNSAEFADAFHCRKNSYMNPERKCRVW
substance,measurement,setting,value
"trisodium [3-((1S,3R)-1-biphenyl-4-ylmethyl-3-ethoxycarbonyl-1-butylcarbamoyl)propionate-(S)-3′-methyl-2′-(pentanoyl{2″-(tetrazol-5-ylate)biphenyl-4′-ylmethyl}amino)butyrate] hemipentahydrate",mean arterial pressure (MAP),"[1]; 2, 6, 20 or 60 mg/kg, p.o., baseline 24-hr MAP approximately 170-180 mmHg",dose-dependently reduces MAP
same,antihypertensive effect,"[1]; oral administration, conscious dTGRs, a rat model of fulminant hypertension",dose-dependent and long-lasting antihypertensive effect
same,"MAP, difference from vehicle controls","[1]; three highest doses (of 2, 6, 20, 60 mg/kg, p.o.)",significantly different from the vehicle controls
same,plasma ANPir,[2]; [3],dose-dependently augments ANPir
same,time to augmentation of plasma ANPir after dosing,[2]; [3],≤ 15 min
same,"NEP inhibition in vivo, as reflected by potentiation of plasma ANPir",[2],rapidly and dose-dependently inhibits NEP with a long duration of action
same,"NEP inhibition in vivo, as reflected by potentiation of plasma ANPir",[2]; listed as LCZ696,rapidly and dose-dependently inhibited NEP with a long duration of action
